Test results: patent publication US11566007B2, “Ras inhibitors” (Revolution Medicines, Inc., priority 2019, dated 2023)

Key:
NRAS Q61R = NRAS Q61R (Homo sapiens (Human), UniProt P01111+P62937, Q61R); experiment: Ras-Raf (BRAF RBD) disruption / FRET / MOA assay, NRAS Q61R; type: biochemical; settings: NRAS Q61R; Ras-Raf disruption/FRET/MOA assay; read-out: IC50* NRAS Q61R FRET data
Method in brief: (§1)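 Compounds were tested as a 10-point 3-fold dilution series from 30 μM final for their ability to drive ternary complex formation between nucleotide-loaded Ras and cyclophilin A, displacing the BRAF RBD. After 3 h at 25° C., anti-His Eu-W1024 (10 nM) and anti-GST allophycocyanin (50 nM) were added for 1.5 h. A TR-FRET ratio decrease versus DMSO gave IC50.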

KRAS Q61H = KRAS Q61H (Homo sapiens (Human), UniProt P01116+P62937, Q61H); experiment: Ras-Raf (BRAF RBD) disruption / FRET / MOA assay, KRAS Q61H; type: biochemical; settings: Ras-Raf disruption/FRET/MOA assay; class symbols; read-out: KRAS Q61H FRET data IC50
Chain of KRAS Q61H (P01116-2 other isoform, or with tags, fused parts or gaps Q61H): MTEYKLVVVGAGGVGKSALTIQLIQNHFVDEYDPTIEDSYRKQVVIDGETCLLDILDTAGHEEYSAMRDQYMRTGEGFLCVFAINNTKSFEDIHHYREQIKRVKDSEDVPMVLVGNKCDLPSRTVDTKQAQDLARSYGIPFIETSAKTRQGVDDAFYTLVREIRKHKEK
Chain of KRAS Q61H (P62937 whole entry): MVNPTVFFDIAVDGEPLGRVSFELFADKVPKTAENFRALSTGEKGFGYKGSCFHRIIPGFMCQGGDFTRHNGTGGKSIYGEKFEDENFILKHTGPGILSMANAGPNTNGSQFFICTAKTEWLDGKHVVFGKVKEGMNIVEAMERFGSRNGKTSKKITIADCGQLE
Method in brief: as §1

K-Ras G12C = K-Ras G12C (Homo sapiens (Human), UniProt P01116+P62937, G12C); experiment: Ras-Raf (BRAF RBD) disruption / FRET / MOA assay, KRAS G12C; type: biochemical; settings: KRAS G12C; Ras-Raf disruption/FRET/MOA assay; read-out: IC50* KRAS G12C FRET data
Chain of K-Ras G12C (P01116-2 other isoform, or with tags, fused parts or gaps G12C): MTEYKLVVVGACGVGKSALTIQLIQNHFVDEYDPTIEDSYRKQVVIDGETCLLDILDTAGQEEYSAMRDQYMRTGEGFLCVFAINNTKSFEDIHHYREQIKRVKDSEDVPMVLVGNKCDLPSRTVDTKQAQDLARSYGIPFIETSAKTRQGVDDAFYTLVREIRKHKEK
Chain of K-Ras G12C (P62937 whole entry): as the sequence (P62937 whole entry) above
Method in brief: (§2)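 Ternary complex formation (Ras–compound–cyclophilin A) displacing BRAF RBD, monitored by TR-FRET. Three hours at 25° C with compound (top 30 μM final), then 1.5 h with the labelled antibodies. Lower ratio than DMSO indicates disruption; IC50 reported.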

[1] = test system: NCI-H358 cells (K-Ras G12C); experiment: Potency assay: pERK in NCI-H358 cells; type: cell-based, human; settings: Homo sapiens, NCI-H358; H358 KRAS G12C; read-out: pERK EC50
Method in brief: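 Compounds are dosed as ten 3-fold dilutions from a 10 mM DMSO stock, in duplicate, and left on cells for 4 h at 37 °C, 5% CO2. Phospho-ERK1/2 is then quantified by AlphaLISA SureFire Ultra or In-Cell Western, and IC50 is derived from a 4-parameter sigmoid against log concentration.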

K-Ras G13C = K-Ras G13C (Homo sapiens (Human), UniProt P01116+P62937, G13C); experiment: Ras-Raf (BRAF RBD) disruption / FRET / MOA assay, KRAS G13C; type: biochemical; settings: KRAS G13C; Ras-Raf disruption/FRET/MOA assay; read-out: IC50* KRAS G13C FRET data
Chain of K-Ras G13C (P01116-2 other isoform, or with tags, fused parts or gaps G13C): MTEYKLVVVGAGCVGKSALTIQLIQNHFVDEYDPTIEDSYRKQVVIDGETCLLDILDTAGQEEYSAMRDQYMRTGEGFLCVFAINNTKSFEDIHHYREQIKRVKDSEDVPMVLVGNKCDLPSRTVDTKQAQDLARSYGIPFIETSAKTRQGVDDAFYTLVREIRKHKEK
Chain of K-Ras G13C (P62937 whole entry): as the sequence (P62937 whole entry) above
Method in brief: as §2

NRAS WT = NRAS WT (Homo sapiens (Human), UniProt P01111+P62937); experiment: Ras-Raf (BRAF RBD) disruption / FRET / MOA assay, NRAS WT; type: biochemical; settings: read-out: IC50* NRAS WT FRET data
Chain of NRAS WT (P01111 whole entry): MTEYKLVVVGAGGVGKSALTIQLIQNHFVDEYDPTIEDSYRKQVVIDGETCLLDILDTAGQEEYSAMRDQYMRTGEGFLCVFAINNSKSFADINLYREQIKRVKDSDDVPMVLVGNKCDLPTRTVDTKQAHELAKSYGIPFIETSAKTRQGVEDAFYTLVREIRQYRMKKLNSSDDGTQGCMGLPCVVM
Chain of NRAS WT (P62937 whole entry): as the sequence (P62937 whole entry) above
Method in brief: as §1

Chain of NRAS Q61R (P01111 whole entry Q61R): as the sequence (P01111 whole entry) above, with Q61R counted along it
Chain of NRAS Q61R (P62937 whole entry): as the sequence (P62937 whole entry) above

Row | Compound | IC50 (NRAS Q61R) [nM] | IC50 (KRAS Q61H) [nM] | IC50 (K-Ras G12C) [nM] | EC50 [1] [nM] | IC50 (K-Ras G13C) [nM] | IC50 (NRAS WT) [nM]
1 | C=CC(=O)N1CC[C@H](C(=O)N(C)[C@H](C(=O)N[C@H]2Cc3cc(O)cc(c3)-c3ccc4c(c3)c(c(-c3cccc5c3COC5)n4CC)CC(C)(C)COC(=O)[C@@H]3CCCN(N3)C2=O)C(C)C)C1 [Example A227] | > 10000 | 1000 to 10000 | 100 to 1000 | < 5000 | 1000 to 10000 | 1000 to 10000
2 | C=CC(=O)N1CC[C@H](C(=O)N(C)[C@H](C(=O)N[C@H]2Cc3cc(O)cc(c3)-c3ccc4c(c3)c(c(-c3cnc(N(C)C)s3)n4CC)CC(C)(C)COC(=O)[C@@H]3CCCN(N3)C2=O)C(C)C)C1 [Example A302] | > 10000 | 1000 to 10000 | 100 to 1000 | < 5000 | 100 to 1000 | > 10000
3 | C=CC(=O)N1CC[C@H](C(=O)N(C)[C@H](C(=O)N[C@H]2Cc3cc(O)cc(c3)-c3ccc4c(c3)c(c(-c3csc(N(C)C)n3)n4CC)CC(C)(C)COC(=O)[C@@H]3CCCN(N3)C2=O)C(C)C)C1 [Example A303] | > 10000 | 1000 to 10000 | 1000 to 10000 | < 5000 | > 10000 | > 10000
4 | C=CC(=O)N1CCOC2(CCN(C(=O)N(C)[C@H](C(=O)N[C@H]3C[C@H]4CN(CCO4)c4ccc5c(c4)c(c(-c4cccnc4[C@H](C)OC)n5CC)CC(C)(C)COC(=O)[C@@H]4CCCN(N4)C3=O)C(C)C)CC2)C1 [Example A564] | 1000 to 10000 | 100 to 1000 | 100 to 1000 | < 5000 | 10 to 100 | 100 to 1000
5 | CCn1c(-c2cccnc2[C@H](C)OC)c2c3cc(ccc31)-c1cccc(c1)CC(NC(=O)[C@H](C(C)C)N1CC[C@]3(CCN(C(=O)C#C[C@@H]4COCCN4C4COC4)C3)C1=O)C(=O)N1CCC[C@H](N1)C(=O)OCC(C)(C)C2 (stereo partly drawn) [Example A565] | > 10000 | 1000 to 10000 | 100 to 1000 | < 5000 | 1000 to 10000 | > 10000
6 | C=CC(=O)N1CC[C@H](C(=O)N(C)[C@H](C(=O)N[C@H]2Cc3cccc(c3)-c3ccc4c(c3)c(c(-c3cccnc3[C@H](C)OC)n4CC)CC(C)(C)COC(=O)[C@@H]3CCCN(N3)C2=O)C(C)C(F)(F)F)C1 (stereo partly drawn) [Example A641] | 1000 to 10000 | 1000 to 10000 | 100 to 1000 | < 5000 | 1000 to 10000 | 1000 to 10000
7 | CCn1c(-c2cccnc2[C@H](C)OC)c2c3cc(ccc31)C1CCCN(C1)C[C@H](NC(=O)[C@@H](COC1CN(C(=O)C#CC(C)(C)N(C)C)C1)C(C)C)C(=O)N1CCC[C@H](N1)C(=O)OCC(C)(C)C2 [Example A646, (2R)-2-(((1-(4-(dimethylamino)-4-methylpent-2-ynoyl)azetidin-3-yl)oxy)methyl)-N-((6^3S,4S)-1^1-ethyl-1^2-(2-((S)-1-methoxyethyl)pyridin-3-yl)-10,10-dimethyl-5,7-dioxo-6^1,6^2,6^3,6^4,6^5,6^6-hexahydro-1^1H-8-oxa-1(5,3)-indola-6(1,3)-pyridazina-2(3,1)-piperidinacycloundecaphane-4-yl)-3-methylbutanamide] | > 10000 | > 10000 | 10 to 100 | < 5000 | > 10000 | > 10000
8 | C=CC(=O)C1CC[C@H](C(=O)N(C)[C@H](C(=O)N[C@H]2Cc3nsc(n3)-c3ccc4c(c3)c(c(-c3cccnc3[C@H](C)OC)n4CC)CC(C)(C)COC(=O)[C@@H]3CCCN(N3)C2=O)C(C)C)C1 (stereo partly drawn) [Example A694] | 1000 to 10000 | 100 to 1000 | 100 to 1000 | < 5000 | 100 to 1000 | 1000 to 10000
